From patent US8344028B2, “Gamma-amino-butyric acid derivatives as GABAB receptor ligands” (XenoPort, Inc., priority 2009, dated 2013)

Target: GABAB receptor (Homo sapiens, UniProt Q9UBS5)
Assay: GABAB receptor agonist or partial agonist activity by binding, electrophysiology, cAMP and/or Ca2+ assay methods (Examples 83-86)
Format: cell-based
Protocol: An assay using rat cerebral cortex membranes was used to determine the affinity of GABAB receptor ligands for the GABAB receptor.
An assay buffer of 50 mM Tris pH 7.4 was prepared with 100 μM of isoguvacine, to block GABAA interactions. The assay buffer with isoguvacine was used for dilution of membranes, compounds, and radiolabel.
Rat cerebral cortex membranes were diluted in assay buffer at 1 mg/mL and aliquoted into a 96-well plate at 900 μL/well. Buffer or test compound were added at 20-times final concentration in the buffer at 50 μL/well. Membranes and test compounds or buffer were incubated for 10 min. at room temperature. Radiolableled [S—(R*,R*)]-[3-[[1-(3,4-dichlorophenyl)ethyl]amino]-2-hydroxypropyl](cyclohexylmethyl) phosphinic acid (CGP54626) was then added at 50 μL/well in the buffer at 1-10 nM concentration in 50 μl. […] The assay mixture was filtered using Brandell filtration apparatus and GFB filters, washed twice with 3 mL of 4° C., 50 mM Tris pH 7.4, buffer without isoguvacine. The filters were then dried at room temperature and the dried filters punched out and placed in individual vials. Three (3) mL of scintillation fluid was added to each vial and the radiolabel counted on the scintillation counter. The inverse amount of radiolabel was indicative of binding of a test compound to the GABAB receptor.
The following procedure was used to determine the level of intracellular cAMP. Recombinant HEK cells expressing the GABAB R1a2 receptor were used in the experiments. cAMP levels were measured using a cAMP XS^+ HitHunter™ Chemiluminescence Assay Kit (90-0075-02, GE Healthcare Biosciences Corp.). Cells were seeded overnight at 5,000 cells per well, in black, clear bottom 96-well plates. The following morning, cells were washed twice with 100 μL PBS per well. Forskolin was weighed out and dissolved in DMSO to a final concentration 100 mM. One-hundred (100) μM forskolin solutions were prepared in PBS with and without test compound at 1-times final concentration. Thirty (30) μL of the test solutions were added to the wells and incubated for 1 h at room temperature. The cAMP concentration was determined according to the protocol described in the cAMP assay kit, maintaining the plate at room temperature and in the dark. […] Each well was read for 6 seconds. The untransformed data was then analyzed.
The following procedure was used to determine the GABAB receptor agonist activity of a compound as reflected by activation of Ca^2+ signaling. HEK TREx cells expressing GABABR1a2 under tetracycline induction control, and Gqi chimeric protein (expressed constitutively), allowing GABABR coupling through the Ca^2+ signaling pathway were used in the experiments.
Cells were seeded in media containing tetracycline overnight at 100,000 cells/well, in black, clear-bottom, 96-well plates. The following morning, cells were washed twice with 100 μL HBSS buffer per well. Fluorescent Ca^2+ indicator dye was prepared using the materials and procedure described in the F362056 Fluo-4 NW Calcium Assay Kit (Invitrogen, Carlsbad, Calif.). Ten (10) mL of kit buffer and 100 μl of kit Probenecid were added to individual kit dye vials, and rolled back and forth several times to dissolve the dye. Cells were then loaded into the dye solution at 50 μL per well. The cells and dye were incubated for 30 min at 37° C., and then incubated for an additional 30 min at room temperature in the dark. Test compounds are dissolved in HBSS buffer at twice final concentration. Duplicate wells were used for each unique condition. Solution containing the test compound was added to the wells using a FLEXStation II (Molecular Devices, Sunnyvale, Calif.). Using the instrument in kinetic mode in which each well was read every 2 sec over a total collection time of 50 sec fluorescence was measured using an excitation wavelength 494 nm and a detection wavelength of 516 nm. A normalized fluorescence value for each well was calculated using the following procedure.

Chain of GABAB receptor (Q9UBS5 20-961): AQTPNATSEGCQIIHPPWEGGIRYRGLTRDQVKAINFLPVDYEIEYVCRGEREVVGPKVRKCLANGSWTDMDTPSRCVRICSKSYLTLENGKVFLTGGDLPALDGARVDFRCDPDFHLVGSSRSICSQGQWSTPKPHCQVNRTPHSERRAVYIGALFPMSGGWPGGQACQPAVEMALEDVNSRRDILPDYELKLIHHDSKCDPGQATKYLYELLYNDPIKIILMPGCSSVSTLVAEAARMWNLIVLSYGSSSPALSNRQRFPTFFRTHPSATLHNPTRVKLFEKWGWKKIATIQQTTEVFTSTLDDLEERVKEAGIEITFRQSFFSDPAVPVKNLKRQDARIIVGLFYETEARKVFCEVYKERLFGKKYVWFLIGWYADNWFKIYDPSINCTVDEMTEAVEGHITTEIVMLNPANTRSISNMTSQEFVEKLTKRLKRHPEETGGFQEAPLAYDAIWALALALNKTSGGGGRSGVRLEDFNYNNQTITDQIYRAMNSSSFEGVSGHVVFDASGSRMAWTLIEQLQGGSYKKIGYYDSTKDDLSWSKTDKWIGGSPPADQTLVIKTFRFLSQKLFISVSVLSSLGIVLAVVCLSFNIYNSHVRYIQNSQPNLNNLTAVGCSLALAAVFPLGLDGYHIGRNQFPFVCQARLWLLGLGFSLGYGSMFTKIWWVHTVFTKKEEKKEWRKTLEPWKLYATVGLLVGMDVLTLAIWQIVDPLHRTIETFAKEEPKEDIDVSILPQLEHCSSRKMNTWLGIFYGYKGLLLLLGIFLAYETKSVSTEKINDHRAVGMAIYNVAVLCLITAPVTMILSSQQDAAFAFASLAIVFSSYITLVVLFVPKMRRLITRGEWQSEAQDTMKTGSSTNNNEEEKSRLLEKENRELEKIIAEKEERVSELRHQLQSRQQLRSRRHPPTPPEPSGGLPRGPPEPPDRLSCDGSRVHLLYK
Chain of GABAB receptor (O75899 42-941 partner): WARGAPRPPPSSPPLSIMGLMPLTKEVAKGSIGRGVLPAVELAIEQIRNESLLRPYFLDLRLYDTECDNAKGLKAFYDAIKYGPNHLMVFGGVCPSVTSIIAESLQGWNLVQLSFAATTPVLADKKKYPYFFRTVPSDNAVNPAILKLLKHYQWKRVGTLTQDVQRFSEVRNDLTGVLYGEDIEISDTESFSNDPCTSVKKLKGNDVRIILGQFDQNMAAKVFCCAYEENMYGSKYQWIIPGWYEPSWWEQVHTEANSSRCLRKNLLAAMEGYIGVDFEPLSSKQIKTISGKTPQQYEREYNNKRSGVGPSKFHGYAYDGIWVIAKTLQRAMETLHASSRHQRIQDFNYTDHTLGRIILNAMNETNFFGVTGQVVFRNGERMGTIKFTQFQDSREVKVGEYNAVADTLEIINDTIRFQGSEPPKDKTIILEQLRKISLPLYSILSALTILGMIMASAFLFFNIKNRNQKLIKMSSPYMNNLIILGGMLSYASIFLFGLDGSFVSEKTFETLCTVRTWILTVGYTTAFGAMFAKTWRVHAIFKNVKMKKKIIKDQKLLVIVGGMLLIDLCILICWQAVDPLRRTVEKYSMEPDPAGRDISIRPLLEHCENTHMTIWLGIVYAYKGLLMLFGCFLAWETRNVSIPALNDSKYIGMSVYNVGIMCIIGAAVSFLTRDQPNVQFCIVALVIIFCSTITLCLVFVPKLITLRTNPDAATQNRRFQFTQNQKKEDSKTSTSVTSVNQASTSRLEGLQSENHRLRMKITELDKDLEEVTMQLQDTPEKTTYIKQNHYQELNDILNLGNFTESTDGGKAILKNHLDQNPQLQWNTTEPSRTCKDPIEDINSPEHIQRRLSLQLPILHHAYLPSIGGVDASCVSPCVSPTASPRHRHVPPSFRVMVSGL

Row | SMILES | GABAB receptor agonist or partial agonist activity
1 | NC[C@H](CC(=O)O)c1cc(Br)c(Cl)c(-c2cccnc2)c1 [(3R)-4-amino-3-(5-bromo-4-chloro-3-(3-pyridyl)phenyl)butanoic acid] | agonist or partial agonist activity
2 | Cl.NC[C@H](CC(=O)O)c1ccc(Cl)c(NCc2cc(C(F)(F)F)cc(C(F)(F)F)c2)c1 [(3R)-4-amino-3-[3-({[3,5-bis(trifluoromethyl)phenyl]methyl}amino)-4-chlorophenyl]butanoic acid hydrochloride] | agonist or partial agonist activity
3 | CC(C)(C)Oc1ccc(CNc2cc([C@H](CN)CC(=O)O)ccc2Cl)cc1.Cl [(3R)-4-amino-3-[3-({[4-(tert-butoxy)phenyl]methyl}amino)-4-chlorophenyl]butanoic acid hydrochloride] | agonist or partial agonist activity
4 | Cl.N#Cc1cccc(-c2cc([C@H](CN)CC(=O)O)cc(Br)c2Cl)c1 [(3R)-4-amino-3-[3-bromo-4-chloro-5-(3-cyanophenyl]butanoic acid hydrochloride] | agonist or partial agonist activity
5 | Cl.N#Cc1cccc(-c2cc(Cl)ccc2[C@H](CN)CC(=O)O)c1 [(3R)-4-amino-3-[4-chloro-2-(3-cyanophenyl)phenyl]butanoic acid hydrochloride] | agonist or partial agonist activity
6 | Cl.NC[C@H](CC(=O)O)c1ccc(Cl)c(-c2ccc(Cl)cc2Cl)c1 [(3R)-4-amino-3-[4-chloro-3-(2,4-dichlorophenyl)phenyl]butanoic acid hydrochloride] | agonist or partial agonist activity
7 | Cl.NC[C@H](CC(=O)O)c1ccc(Cl)c(CCc2ccccn2)c1 [(3R)-4-amino-3-[4-chloro-3-(2-(2-pyridyl)ethyl)phenyl]butanoic acid hydrochloride] | agonist or partial agonist activity
8 | NC[C@H](CC(=O)O)c1ccc(Cl)c(NC(=O)c2ccccn2)c1 [(3R)-4-amino-3-[4-chloro-3-(2-pyridylcarbonylamino)phenyl]butanoic acid] | agonist or partial agonist activity
9 | Cl.NC[C@H](CC(=O)O)c1ccc(Cl)c(OCc2ccccn2)c1 [(3R)-4-amino-3-[4-chloro-3-(2-pyridylmethoxy)phenyl]butanoic acid hydrochloride] | agonist or partial agonist activity
10 | Cl.NC[C@H](CC(=O)O)c1ccc(Cl)c(-c2cc(F)c(F)c(F)c2)c1 [(3R)-4-amino-3-[4-chloro-3-(3,4,5-trifluorophenyl)phenyl]butanoic acid hydrochloride] | agonist or partial agonist activity
11 | Cl.NC[C@H](CC(=O)O)c1ccc(Cl)c(-c2ccc(Cl)c(Cl)c2)c1 [(3R)-4-amino-3-[4-chloro-3-(3,4-dichlorophenyl)phenyl]butanoic acid hydrochloride] | agonist or partial agonist activity
12 | Cl.NC[C@H](CC(=O)O)c1ccc(Cl)c(-c2ccc(O)c(Cl)c2)c1 [(3R)-4-amino-3-[4-chloro-3-(3-chloro-4-hydroxyphenyl)phenyl]butanoic acid hydrochloride] | agonist or partial agonist activity
13 | Cl.N#Cc1cccc(-c2cc([C@H](CN)CC(=O)O)ccc2Cl)c1F [(3R)-4-amino-3-[4-chloro-3-(3-cyano-2-fluorophenyl)phenyl]butanoic acid hydrochloride] | agonist or partial agonist activity

Results, then the compound that gave them:

Row | GABAB receptor agonist or partial agonist activity | SMILES
14 | agonist or partial agonist activity | Cl.N#Cc1cc(-c2cc([C@H](CN)CC(=O)O)ccc2Cl)ccc1F [(3R)-4-amino-3-[4-chloro-3-(3-cyano-4-fluorophenyl)phenyl]butanoic acid hydrochloride]
15 | agonist or partial agonist activity | Cc1ccc(-c2cc([C@H](CN)CC(=O)O)ccc2Cl)cc1C#N.Cl [(3R)-4-amino-3-[4-chloro-3-(3-cyano-4-methylphenyl)phenyl]butanoic acid hydrochloride]
16 | agonist or partial agonist activity | Cl.N#Cc1cc(O)cc(-c2cc([C@H](CN)CC(=O)O)ccc2Cl)c1 [(3R)-4-amino-3-[4-chloro-3-(3-cyano-5-hydroxyphenyl)phenyl]butanoic acid hydrochloride]
17 | agonist or partial agonist activity | Cl.N#Cc1ccc(O)c(-c2cc([C@H](CN)CC(=O)O)ccc2Cl)c1 [(3R)-4-amino-3-[4-chloro-3-(3-cyano-6-hydroxyphenyl)phenyl]butanoic acid hydrochloride]
18 | agonist or partial agonist activity | NC[C@H](CC(=O)O)c1ccc(Cl)c(-c2ccsc2)c1 [(3R)-4-amino-3-[4-chloro-3-(3-thienyl)phenyl]butanoic acid]
19 | agonist or partial agonist activity | Cl.NC[C@H](CC(=O)O)c1ccc(Cl)c(-c2cc(Cl)ccn2)c1 [(3R)-4-amino-3-[4-chloro-3-(4-chloro(2-pyridyl))phenyl]butanoic acid hydrochloride]
20 | agonist or partial agonist activity | Cc1cc(-c2cc([C@H](CN)CC(=O)O)ccc2Cl)ccc1Cl.Cl [(3R)-4-amino-3-[4-chloro-3-(4-chloro-3-methylphenyl)phenyl]butanoic acid hydrochloride]
21 | agonist or partial agonist activity | Cl.NC[C@H](CC(=O)O)c1ccc(Cl)c(Cc2ccncc2)c1 [(3R)-4-amino-3-[4-chloro-3-(4-pyridylmethyl)phenyl]butanoic acid hydrochloride]
22 | agonist or partial agonist activity | Cl.N#Cc1cc(Cl)cc(-c2cc([C@H](CN)CC(=O)O)ccc2Cl)c1 [(3R)-4-amino-3-[4-chloro-3-(5-chloro-3-cyanophenyl)phenyl]butanoic acid hydrochloride]
23 | agonist or partial agonist activity | Cl.N#Cc1cncc(-c2cc([C@H](CN)CC(=O)O)ccc2Cl)c1 [(3R)-4-amino-3-[4-chloro-3-(5-cyano(3-pyridyl))phenyl]butanoic acid hydrochloride]
24 | agonist or partial agonist activity | Cl.N#Cc1cccc(-c2cc([C@H](CN)CC(=O)O)ccc2Cl)n1 [(3R)-4-amino-3-[4-chloro-3-(6-cyano(2-pyridyl))phenyl]butanoic acid hydrochloride]
25 | agonist or partial agonist activity | CN(C(=O)c1ccccc1)c1cc([C@H](CN)CC(=O)O)ccc1Cl.Cl [(3R)-4-amino-3-[4-chloro-3-(N-methylphenylcarbonylamino)phenyl]butanoic acid hydrochloride]
26 | agonist or partial agonist activity | Cl.NC[C@H](CC(=O)O)c1ccc(Cl)c(OCc2ccccc2)c1 [(3R)-4-amino-3-[4-chloro-3-(phenylmethoxy)phenyl]butanoic acid hydrochloride]
27 | agonist or partial agonist activity | Cl.NCc1cccc(-c2cccc([C@H](CN)CC(=O)O)c2)c1 [(3R)-4-amino-3-{3-[3-(aminomethyl)phenyl]phenyl}butanoic acid hydrochloride]
28 | agonist or partial agonist activity | Cl.NC[C@H](CC(=O)O)c1ccc(Cl)c(-c2ccc(CC(=O)O)cc2)c1 [(3R)-4-amino-3-{3-[4-(carboxymethyl)phenyl]-4-chlorophenyl}butanoic acid hydrochloride]
